How the values were obtained:
Candida albicans #10231 = assay: Challenge Test (Antimicrobial Effectiveness Test), yeast inoculum; assay type: cell-based; set-up: key to Challenge Test result: Yeast C. albicans: Fail: Recovery of surviving organisms at 14 days was a failing result for the challenge test; settings: for Challenge Test result: Yeast C. albicans: stabilized acrylic latex A
Description: The following cultures were obtained from American Type Culture Collection (ATCC) at 10801 University Boulevard, Manassas, Va. 20110-2209: Escherichia coli #11229, Pseudomonas aeruginosa #15442, Candida albicans #10231, Aspergillus niger #6275.
The yeast inoculum was 0.10 ml of a 72-hr±4 hr culture of C. albicans in 25 grams of sample to give approximately 2×10^5 CFU/g. The C. albicans culture was grown in Potato Dextrose Broth (Difco Laboratories, Detroit, Mich.) at 28° C.
(§1) Each of the 25-g samples were inoculated or challenged with 0.10 ml of the bacterial inoculum, the yeast inoculum, and the mold inoculum respectively on day-0 and day-14. All samples were stored at ambient temperature. Each sample (10 microliter) was streaked on appropriate agar plates (bacteria on Tryptic Soy Agar (Difco Laboratories, Detroit, Mich.) plates with neutralizer and yeast/mold on Potato Dextrose Agar (Difco Laboratories, Detroit, Mich.) plates with neutralizer) on day-1, day-2, day-3, day-7, day-14, day-15, day-16, day-17, day-21, and day-28 to test for survivors. Streaked plates were incubated at appropriate temperature and time (48-hr at 35±2° C. for bacteria and 72-hr at 28±2° C. for yeast/mold). On day-14, each sample was re-inoculated with appropriate inoculum after streaking on agar plates. Plates were read after incubation time. Recovery of surviving organisms at 14 days was a failing result for the challenge test.
Biocides were always added after the reaction has been completed and after the batch has been cooled to <50° C. The desired temperature was dependent on the specific biocide. Many biocides become deactivated if exposed to high temperatures for an extended time. Each biocide was diluted with about 5× its weight with DI water and slowly added to the batch with good agitation. The dilution is to prevent the biocide from shocking the latex. The batch was mixed for a minimum of 20 minutes after the biocide was added to ensure good incorporation. If any temporary destabilization to the latex had occurred, it had time to recover prior to filtration.
The Challenge Test is a qualitative laboratory procedure used to differentiate poorly and marginally preserved products from well-preserved products. Products are intentionally inoculated with test organisms and then evaluated by use of streak plating technique to determine if microbial reduction has been attained.

Aspergillus niger #6275 = assay: Challenge Test (Antimicrobial Effectiveness Test), mold inoculum; assay type: cell-based; settings: stabilized acrylic latex A
Description: The following cultures were obtained from American Type Culture Collection (ATCC) at 10801 University Boulevard, Manassas, Va. 20110-2209: Escherichia coli #11229, Pseudomonas aeruginosa #15442, Candida albicans #10231, Aspergillus niger #6275. The mold inoculum was 0.10 ml of A. niger culture specimen in 25 grams of sample to give approximately 2×10^5 CFU/g. The culture specimen was obtained from 7-day-old A. niger culture grown on Sabouraud Dextrose Agar (Difco Laboratories, Detroit, Mich.) with 0.2% Triton X-100 in 0.85% saline. Each of the 25-g samples were inoculated or challenged with 0.10 ml of the bacterial inoculum, the yeast inoculum, and the mold inoculum respectively on day-0 and day-14. All samples were stored at ambient temperature. Each sample (10 microliter) was streaked on appropriate agar plates (bacteria on Tryptic Soy Agar (Difco Laboratories, Detroit, Mich.) plates with neutralizer and yeast/mold on Potato Dextrose Agar (Difco Laboratories, Detroit, Mich.) plates with neutralizer) on day-1, day-2, day-3, day-7, day-14, day-15, day-16, day-17, day-21, and day-28 to test for survivors. Streaked plates were incubated at appropriate temperature and time (48-hr at 35±2° C. for bacteria and 72-hr at 28±2° C. for yeast/mold). On day-14, each sample was re-inoculated with appropriate inoculum after streaking on agar plates. Plates were read after incubation time. Recovery of surviving organisms at 14 days was a failing result for the challenge test. Biocides were always added after the reaction has been completed and after the batch has been cooled to <50° C. The desired temperature was dependent on the specific biocide. Many biocides become deactivated if exposed to high temperatures for an extended time. Each biocide was diluted with about 5× its weight with DI water and slowly added to the batch with good agitation. The dilution is to prevent the biocide from shocking the latex. The batch was mixed for a minimum of 20 minutes after the biocide was added to ensure good incorporation. If any temporary destabilization to the latex had occurred, it had time to recover prior to filtration. The Challenge Test is a qualitative laboratory procedure used to differentiate poorly and marginally preserved products from well-preserved products. Products are intentionally inoculated with test organisms and then evaluated by use of streak plating technique to determine if microbial reduction has been attained.

[1] = test system: Escherichia coli #11229, Pseudomonas aeruginosa #15442; assay: Challenge Test (Antimicrobial Effectiveness Test), bacterial inoculum (1:1 mixture); assay type: cell-based, E. coli & P. aeruginosa; settings: stabilized acrylic latex A
Description: The following cultures were obtained from American Type Culture Collection (ATCC) at 10801 University Boulevard, Manassas, Va. 20110-2209: Escherichia coli #11229, Pseudomonas aeruginosa #15442, Candida albicans #10231, Aspergillus niger #6275. The bacterial inoculum was 0.10 ml of a 1:1 mixture of the 24-hr±4 hr culture of E. coli and P. aeruginosa in 25 grams of sample to give approximately 4×10^6 CFU/g. Both E. coli culture and the P. aeruginosa culture were grown in Nutrient Broth (Difco Laboratories, Detroit, Mich.) at 35° C. Each of the 25-g samples were inoculated or challenged with 0.10 ml of the bacterial inoculum, the yeast inoculum, and the mold inoculum respectively on day-0 and day-14. All samples were stored at ambient temperature. Each sample (10 microliter) was streaked on appropriate agar plates (bacteria on Tryptic Soy Agar (Difco Laboratories, Detroit, Mich.) plates with neutralizer and yeast/mold on Potato Dextrose Agar (Difco Laboratories, Detroit, Mich.) plates with neutralizer) on day-1, day-2, day-3, day-7, day-14, day-15, day-16, day-17, day-21, and day-28 to test for survivors. Streaked plates were incubated at appropriate temperature and time (48-hr at 35±2° C. for bacteria and 72-hr at 28±2° C. for yeast/mold). On day-14, each sample was re-inoculated with appropriate inoculum after streaking on agar plates. Plates were read after incubation time. Recovery of surviving organisms at 14 days was a failing result for the challenge test. Biocides were always added after the reaction has been completed and after the batch has been cooled to <50° C. The desired temperature was dependent on the specific biocide. Many biocides become deactivated if exposed to high temperatures for an extended time. Each biocide was diluted with about 5× its weight with DI water and slowly added to the batch with good agitation. The dilution is to prevent the biocide from shocking the latex. The batch was mixed for a minimum of 20 minutes after the biocide was added to ensure good incorporation. If any temporary destabilization to the latex had occurred, it had time to recover prior to filtration. The Challenge Test is a qualitative laboratory procedure used to differentiate poorly and marginally preserved products from well-preserved products. Products are intentionally inoculated with test organisms and then evaluated by use of streak plating technique to determine if microbial reduction has been attained.

C. albicans & A. niger = assay: Challenge Test end point on yeast and mold and Synergy Index (Kull); assay type: cell-based; settings: Dowicil 75 acting alone (QA); test stabilized acrylic latex A
Description: as §1, with “On day-14, each sample was re-inoculated with appropriate inoculum after streaking on agar plates.” left out, “Recovery of surviving organisms at 14 days was a failing result for the challenge test.” left out
Synergism was determined by the method described by F. C. […] Eisman, H. D. Sylwestrowicz, and R. L. Mayer in Applied Microbiology, Volume 9, pages 538-541, 1961 using the ratio determined by • Synergy Index (SI)=Qa/QA+Qb/QB=1 is additivity, <1 is synergism, and >1 is antagonism • where, • Qa=concentration of compound A, in the mixture, producing an end point • QA=concentration of compound A, acting alone, producing an end point • Qb=concentration of compound B, in the mixture, producing an end point • QB=concentration of compound B, acting alone, producing an end point

[2] = 0.20% Dowicil 75, 0.00% Bronopol, DN 12%, pH 6.3
[3] = 0.30% Dowicil 75, 0.00% Bronopol, DN 4%, pH 5.7
[4] = 0.40% Dowicil 75, 0.00% Bronopol, DN 4%, pH 5.75
[5] = 0.40% Dowicil 75, 0.00% Bronopol, DN 17%, pH 6.5

ClC=CC[N+]12CN3CN(CN(C3)C1)C2.[Cl-] [Dowicil 75, 1-(3-chloroallyl)-3,5,7-triaza-1-azoniaadamantane chloride]
Challenge Test result: Yeast C. albicans (Candida albicans #10231; [2]): Fail
Challenge Test result: Yeast C. albicans (Candida albicans #10231; [3]): Pass
killing of the yeast (C. albicans) (Candida albicans #10231; 0.4% DOWICIL 75, stabilized acrylic latex A with DN at 17%): failed to kill
Challenge Test result: Yeast C. albicans (Candida albicans #10231; [4]): Pass
Challenge Test result: Yeast C. albicans (Candida albicans #10231; [5]): Fail
control of Candida albicans (Candida albicans #10231; maximum allowable level, test stabilized acrylic latex): failed to control
Challenge Test result: Mold A. niger (Aspergillus niger #6275; [2]): Pass
Challenge Test result: Mold A. niger (Aspergillus niger #6275; [3]): Pass
Challenge Test result: Mold A. niger (Aspergillus niger #6275; [4]): Pass
Challenge Test result: Mold A. niger (Aspergillus niger #6275; [5]): Pass
Challenge Test result: Bacteria E. coli & P. aeruginosa [1, 2]: Pass
Challenge Test result: Bacteria E. coli & P. aeruginosa [1, 3]: Pass
Challenge Test result: Bacteria E. coli & P. aeruginosa [1, 4]: Pass
Challenge Test result: Bacteria E. coli & P. aeruginosa [1, 5]: Pass
Compound A end-point in % (C. albicans & A. niger): >0.4%
